Source: US11767322B2 (BRISTOL-MYERS SQUIBB COMPANY, priority 2020, dated 2023)

Each compound was assayed on MLKL phosphorylation in HT29-L23 human colorectal adenocarcinoma cells (assay: MLKL phosphorylation high-content assay). Conditions: HT29-L23 cells; necroptosis induced with TNFα, SMAC mimetic and Z-VAD, 6 h; maximal inhibition defined by Nec1s; read-out: pMLKL IC50.
Assay type: cell-based
Work on `[2H]C([2H])([2H])C(O)(c1ccc(F)cc1)C(F)CNC(=O)c1c(C(F)F)ccc(-c2ccn3nc(N)nc3c2)c1F` (single isomer, unassigned) [Example 194, 3-(2-amino-[1,2,4]triazolo[1,5-a]pyridin-7-yl)-6-(difluoromethyl)-2-fluoro-N-(2-fluoro-3-(4-fluorophenyl)-3-hydroxybutyl-4,4,4-d3)benzamide] yielded an IC50 of 8.8 nM.
Compound `Cc1c(C(=O)NCC(F)(F)C(O)c2ccc(F)cc2)cc(-c2ccn3nc(N)nc3c2)c(F)c1F` (single isomer, unassigned) [Example 107, 5-(2-amino-[1,2,4]triazolo[1,5-a]pyridin-7-yl)-N-(2,2-difluoro-3-(4-fluorophenyl)-3-hydroxypropyl)-3,4-difluoro-2-methylbenzamide] has an IC50 of 0.4 nM.
For `CCC(O)(c1ccc(F)cc1)C(F)(F)CNC(=O)c1c(Cl)ccc(-c2ccn3nc(N)nc3c2)c1F` (single isomer, unassigned) [Example 313, 3-(2-amino-[1,2,4]triazolo[1,5-a]pyridin-7-yl)-6-chloro-N-(2,2-difluoro-3-(4-fluorophenyl)-3-hydroxypentyl)-2-fluorobenzamide], the IC50 was 3.8 nM.
For `CCC(O)(c1ccc(F)cc1)C(F)(F)CNC(=O)c1c(Cl)ccc(-c2ccn3nc(N)nc3c2)c1F` (single isomer, unassigned) [Example 314, 3-(2-amino-[1,2,4]triazolo[1,5-a]pyridin-7-yl)-6-chloro-N-(2,2-difluoro-3-(4-fluorophenyl)-3-hydroxypentyl)-2-fluorobenzamide], the IC50 was 17 nM.
Compound `Cc1c(C(=O)NCC(F)(F)C(O)c2ccc(Cl)cc2)cc(-c2ccn3nc(N)nc3c2)c(F)c1F` (single isomer, unassigned) [Example 105, 5-(2-amino-[1,2,4]triazolo[1,5-a]pyridin-7-yl)-N-(3-(4-chlorophenyl)-2,2-difluoro-3-hydroxypropyl)-3,4-difluoro-2-methylbenzamide] has an IC50 of 0.5 nM.
In the case of `COc1ccc(-c2ccn3nc(N)nc3c2)c(F)c1C(=O)NCC(F)(F)C(O)c1ccc(F)cc1` (single isomer, unassigned) [Example 125, 3-(2-amino-[1,2,4]triazolo[1,5-a]pyridin-7-yl)-N-(2,2-difluoro-3-(4-fluorophenyl)-3-hydroxypropyl)-2-fluoro-6-methoxybenzamide], the IC50 is reported as 2.9 nM.
For `[2H]C([2H])([2H])C(O)(c1ccc(F)cc1)C(F)CNC(=O)c1c(C(F)F)ccc(-c2ccn3nc(N)nc3c2)c1F` (single isomer, unassigned) [Example 197, 3-(2-amino-[1,2,4]triazolo[1,5-a]pyridin-7-yl)-6-(difluoromethyl)-2-fluoro-N-(2-fluoro-3-(4-fluorophenyl)-3-hydroxybutyl-4,4,4-d3)benzamide], the IC50 was 0.3 nM.
`[2H]C([2H])([2H])C(O)(c1ccc(F)cc1)C(F)CNC(=O)c1c(Cl)ccc(-c2ccn3nc(N)nc3c2)c1F` (single isomer, unassigned) [Example 240, 3-(2-amino-[1,2,4]triazolo[1,5-a]pyridin-7-yl)-6-chloro-2-fluoro-N-(2-fluoro-3-(4-fluorophenyl)-3-hydroxybutyl-4,4,4-d3)benzamide] was tested, and the IC50 was 3.1 nM.

Same assay, conditions: Homo sapiens, 6 h, HT29-L23 cells; necroptosis induced with TNFα, SMAC mimetic and Z-VAD, 6 h; maximal inhibition defined by Nec1s; read-out: pMLKL IC50
For `Cc1c(C(=O)NCC(F)(F)C(O)c2ccc(Cl)cc2)cc(-c2ccn3nc(N)nc3c2)c(F)c1F` (single isomer, unassigned) [Example 104, 5-(2-amino-[1,2,4]triazolo[1,5-a]pyridin-7-yl)-N-(3-(4-chlorophenyl)-2,2-difluoro-3-hydroxypropyl)-3,4-difluoro-2-methylbenzamide], the IC50 was 0.3 nM.
`Nc1nc2cc(-c3ccc(Cl)c(C(=O)NCC(F)(F)[C@H](F)c4ccc(F)cc4)c3F)ccn2n1` [Example 288, (R)-3-(2-amino-[1,2,4]triazolo[1,5-a]pyridin-7-yl)-6-chloro-2-fluoro-N-(2,2,3-trifluoro-3-(4-fluorophenyl)propyl)benzamide] showed an IC50 of 1 nM.
Compound `C[C@@](O)(c1ccc(F)cc1)[C@@H](F)CNC(=O)c1c(Cl)ccc(-c2ccn3nc(N)nc3c2)c1F` [Example 211, 3-(2-amino-[1,2,4]triazolo[1,5-a]pyridin-7-yl)-6-chloro-2-fluoro-N-((2S,3R)-2-fluoro-3-(4-fluorophenyl)-3-hydroxybutyl)benzamide] has an IC50 of 45 nM.
Work on `Cc1c(F)cc(-c2ccn3nc(N)nc3c2)cc1C(=O)NCCC(C)(O)c1ccccc1` (centres unmarked) [Example 96, 5-(2-amino-[1,2,4]triazolo[1,5-a]pyridin-7-yl)-3-fluoro-N-(3-hydroxy-3-phenylbutyl)-2-methylbenzamide] yielded an IC50 of 39 nM.
For `[2H]C([2H])([2H])c1ccc(-c2ccn3nc(N)nc3c2)c(F)c1C(=O)NC[C@@H](F)[C@](C)(O)c1ccc(F)cc1` [Example 214, 3-(2-amino-[1,2,4]triazolo[1,5-a]pyridin-7-yl)-2-fluoro-N-((2R,3R)-2-fluoro-3-(4-fluorophenyl)-3-hydroxybutyl)-6-(methyl-d3)benzamide], the IC50 was 0.9 nM.
`CCc1ccc(-c2ccn3nc(N)nc3c2)c(F)c1C(=O)NCC(F)(F)C(O)c1ccc(F)cc1` (single isomer, unassigned) [Example 120, 3-(2-amino-[1,2,4]triazolo[1,5-a]pyridin-7-yl)-N-(2,2-difluoro-3-(4-fluorophenyl)-3-hydroxypropyl)-6-ethyl-2-fluorobenzamide] showed an IC50 of 1.4 nM.
In the case of `[2H]C([2H])([2H])c1ccc(-c2ccn3nc(N)nc3c2)c(F)c1C(=O)NC[C@H](F)[C@@](C)(O)c1ccc(F)cc1` [Example 213, 3-(2-amino-[1,2,4]triazolo[1,5-a]pyridin-7-yl)-2-fluoro-N-((2S,3S)-2-fluoro-3-(4-flurophenyl)-3-hydroxybutyl)-6-(methyl-d3)benzamide], the IC50 is reported as 13 nM.
Work on `Cc1ccc(-c2ccn3nc(N)nc3c2)c(F)c1C(=O)NCC(C)(O)C(=O)c1ccc(F)cc1` (centres unmarked) [Example 279, 3-(2-amino-[1,2,4]triazolo[1,5-a]pyridin-7-yl)-2-fluoro-N-(3-(4-fluorophenyl)-2-hydroxy-2-methyl-3-oxopropyl)-6-methylbenzamide] yielded an IC50 of 8.3 nM.
With `Nc1nc2cc(-c3ccc(F)c(C(=O)NCC(F)(F)[C@@H](F)c4ccc(F)cc4)c3F)ccn2n1` [Example 285, (S)-3-(2-amino-[1,2,4]triazolo[1,5-a]pyridin-7-yl)-2,6-difluoro-N-(2,2,3-trifluoro-3-(4-fluorophenyl)propyl)benzamide] the IC50 was 0.8 nM.
`CCc1ccc(-c2ccn3nc(N)nc3c2)c(F)c1C(=O)NCC(F)(F)C(O)c1ccc(F)cc1` (centres unmarked) [Example 121, 3-(2-amino-[1,2,4]triazolo[1,5-a]pyridin-7-yl)-N-(2,2-difluoro-3-(4-fluorophenyl)-3-hydroxypropyl)-6-ethyl-2-fluorobenzamide] gave an IC50 of 1 nM.
Work on `Nc1nc2cc(-c3cc(C(=O)NCC(F)(F)C(O)c4ccc(F)cc4)c(Cl)cc3Cl)ccn2n1` (racemic) [Example 127] yielded an IC50 of 9.7 nM.
`Nc1nc2cc(-c3ccc(C(F)(F)F)c(C(=O)NCC(F)(F)[C@H](F)c4ccc(F)cc4)c3F)ccn2n1` [Example 289, (R)-3-(2-amino-[1,2,4]triazolo[1,5-a]pyridin-7-yl)-2-fluoro-N-(2,2,3-trifluoro-3-(4-fluorophenyl)propyl)-6-(trifluoromethyl)benzamide] was tested, and the IC50 was 1.7 nM.

Same assay, conditions: Homo sapiens, 6 h, read-out: pMLKL IC50, HT29-L23 cells; necroptosis induced with TNFα, SMAC mimetic and Z-VAD, 6 h; maximal inhibition defined by Nec1s
`CC(CCNC(=O)c1cccc(-c2ccn3nc(N)nc3c2)c1)c1ccccc1` (centres unmarked) [Example 316, 3-(2-amino-[1,2,4]triazolo[1,5-a]pyridin-7-yl)-N-(3-phenylbutyl)benzamide] showed an IC50 of 25 nM.

Same assay, conditions: Homo sapiens, Table 22, compounds of the present invention; read-out: pMLKL IC50
Compound `Cc1ccc(-c2ccn3nc(N)nc3c2)c(F)c1C(=O)NCC(C)(O)C(=O)c1ccc(F)cc1` (centres unmarked) [Example 279, 3-(2-amino-[1,2,4]triazolo[1,5-a]pyridin-7-yl)-2-fluoro-N-(3-(4-fluorophenyl)-2-hydroxy-2-methyl-3-oxopropyl)-6-methylbenzamide] has an IC50 of 8.3 nM.

Same assay, conditions: Homo sapiens, read-out: pMLKL IC50, Table 22, compounds of the present invention
`CC(CCNC(=O)c1cccc(-c2ccn3nc(N)nc3c2)c1)c1ccccc1` (centres unmarked) [Example 316, 3-(2-amino-[1,2,4]triazolo[1,5-a]pyridin-7-yl)-N-(3-phenylbutyl)benzamide] showed an IC50 of 25 nM.
